Assay results published in PubChem BioAssay AID330 (DTP/NCI, 2004).
Values joined by “and” are separate entries in the source; they are usually repeats but may differ in a detail not shown here. Identical values can stand only once. Toxic doses and inconclusive results are not listed. How the source made its calls: active means survival T/C of 150% or more; inactive means T/C below 125% in these data.

Tested on: P388 leukemia ip, CD2F1 mice, survival T/C
Assay: NCI In Vivo Anticancer Drug Screen. Data for tumor model P388 Leukemia (intraperitoneal) in CD2F1 (CDF1) mice
Settings: endpoint: median survival time, higher = longer survival
Outline: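 Mice carrying the transplanted tumor received test compound or vehicle. Survival was recorded in each group, and the value is the treated-group measurement divided by that of the vehicle-treated control group.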

[1] = dose: 12.5 mg/kg/injection, schedule: Q01DX009 (ip), vehicle: saline
[2] = dose: 100.0 mg/kg/injection, schedule: Q01DX001 (ip), vehicle: saline with Tween-80
[3] = dose: 60.0 mg/kg/injection, schedule: Q01DX005 (ip), vehicle: saline with Tween-80
[4] = dose: 120.0 mg/kg/injection, schedule: Q01DX005 (ip), vehicle: saline with Tween-80
[5] = dose: 240.0 mg/kg/injection, schedule: Q01DX005 (ip), vehicle: saline with Tween-80
[6] = dose: 50.0 mg/kg/injection, schedule: Q01DX005 (ip), vehicle: saline with Tween-80
[7] = dose: 100.0 mg/kg/injection, schedule: Q01DX005 (ip), vehicle: saline with Tween-80

Measured: T/C

CC(=O)CC(c1ccccc1)c1c(O)c2ccccc2oc1=O (configuration not stated)
inactive: dose: 0.02 mg/kg/injection, schedule: Q01DX009 (ip), vehicle: Klucel (hydroxypropylcellulose) (HPC) 93 % of control and 96 % of control | dose: 0.05 mg/kg/injection, schedule: Q01DX009 (ip), vehicle: Klucel (hydroxypropylcellulose) (HPC) 100 % of control | dose: 0.05 mg/kg/injection, schedule: Q01DX009 (ip), vehicle: saline 99 % of control | dose: 0.06 mg/kg/injection, schedule: Q01DX009 (ip), vehicle: other 99 % of control | dose: 0.1 mg/kg/injection, schedule: Q01DX009 (ip), vehicle: Klucel (hydroxypropylcellulose) (HPC) 96 % of control and 97 % of control | dose: 0.1 mg/kg/injection, schedule: Q01DX009 (ip), vehicle: saline 96 % of control | dose: 0.13 mg/kg/injection, schedule: Q01DX009 (ip), vehicle: other 92 % of control | dose: 0.2 mg/kg/injection, schedule: Q01DX009 (ip), vehicle: Klucel (hydroxypropylcellulose) (HPC) 95 % of control and 96 % of control | dose: 0.2 mg/kg/injection, schedule: Q01DX009 (ip), vehicle: saline 109 % of control and 92 % of control | dose: 0.25 mg/kg/injection, schedule: Q01DX009 (ip), vehicle: other 95 % of control | dose: 0.4 mg/kg/injection, schedule: Q01DX009 (ip), vehicle: Klucel (hydroxypropylcellulose) (HPC) 91 % of control and 95 % of control | dose: 0.4 mg/kg/injection, schedule: Q01DX009 (ip), vehicle: saline 98 % of control and 90 % of control | dose: 0.5 mg/kg/injection, schedule: Q01DX009 (ip), vehicle: saline with Tween-80 97 % of control | dose: 0.8 mg/kg/injection, schedule: Q01DX009 (ip), vehicle: saline 101 % of control and 91 % of control | dose: 1.0 mg/kg/injection, schedule: Q01DX001 (ip), vehicle: saline + alcohol 101 % of control | dose: 1.0 mg/kg/injection, schedule: Q01DX009 (ip), vehicle: saline with Tween-80 93 % of control | dose: 2.0 mg/kg/injection, schedule: Q01DX001 (ip), vehicle: saline + alcohol 101 % of control | dose: 4.0 mg/kg/injection, schedule: Q01DX001 (ip), vehicle: saline + alcohol 95 % of control | dose: 4.0 mg/kg/injection, schedule: Q04HX002 (ip), vehicle: saline with Tween-80 96 % of control | dose: 8.0 mg/kg/injection, schedule: Q04HX002 (ip), vehicle: saline with Tween-80 99 % of control and 86 % of control | dose: 16.0 mg/kg/injection, schedule: Q04HX002 (ip), vehicle: saline with Tween-80 106 % of control and 96 % of control

CC1=CC2c3cccc4[nH]cc(c34)CC2N(C)C1 (configuration not stated)
inactive: dose: 2.5 mg/kg/injection, schedule: Q01DX009 (ip), vehicle: saline 114 % of control and 116 % of control | dose: 5.0 mg/kg/injection, schedule: Q01DX009 (ip), vehicle: saline 117 % of control | dose: 10.0 mg/kg/injection, schedule: Q01DX009 (ip), vehicle: saline 116 % of control and 120 % of control

CCNC(=S)NN
inactive: dose: 3.13 mg/kg/injection, schedule: Q01DX009 (ip), vehicle: saline 106 % of control | dose: 6.25 mg/kg/injection, schedule: Q01DX009 (ip), vehicle: saline 114 % of control | [1] 105 % of control

CC1=CC(=N\S(=O)(=O)c2ccccc2)/c2ccccc2/C1=N/S(=O)(=O)c1ccccc1
inactive: dose: 12.5 mg/kg/injection, schedule: Q01DX001 (ip), vehicle: saline with Tween-80 104 % of control | dose: 25.0 mg/kg/injection, schedule: Q01DX001 (ip), vehicle: saline with Tween-80 100 % of control | dose: 50.0 mg/kg/injection, schedule: Q01DX001 (ip), vehicle: saline with Tween-80 95 % of control

NC(Cn1ccc(=O)c(O)c1)C(=O)O (configuration not stated)
inactive: dose: 12.5 mg/kg/injection, schedule: Q01DX005 (ip), vehicle: saline 113 % of control | dose: 25.0 mg/kg/injection, schedule: Q01DX005 (ip), vehicle: saline 115 % of control | dose: 50.0 mg/kg/injection, schedule: Q01DX005 (ip), vehicle: saline 107 % of control | dose: 100.0 mg/kg/injection, schedule: Q01DX005 (ip), vehicle: saline 116 % of control | dose: 100.0 mg/kg/injection, schedule: Q01DX009 (ip), vehicle: saline 100 % of control and 96 % of control | dose: 200.0 mg/kg/injection, schedule: Q01DX005 (ip), vehicle: saline 114 % of control | dose: 200.0 mg/kg/injection, schedule: Q01DX009 (ip), vehicle: saline 102 % of control and 114 % of control | dose: 400.0 mg/kg/injection, schedule: Q01DX009 (ip), vehicle: saline 107 % of control and 96 % of control | dose: 600.0 mg/kg/injection, schedule: Q01DX009 (ip), vehicle: saline 98 % of control and 102 % of control

CC1=C2C3OC(=O)C(C)C3CCC2(C)CCC1=O (configuration not stated)
inactive: dose: 12.5 mg/kg/injection, schedule: Q04DX002 (ip), vehicle: saline with Tween-80 107 % of control | dose: 25.0 mg/kg/injection, schedule: Q04DX002 (ip), vehicle: saline with Tween-80 91 % of control | dose: 50.0 mg/kg/injection, schedule: Q04DX002 (ip), vehicle: saline with Tween-80 91 % of control

COc1ccc(/C(=C/c2c(C(=O)O)oc3ccccc23)c2ccccc2)cc1
inactive: [2] 97 % of control | dose: 200.0 mg/kg/injection, schedule: Q01DX001 (ip), vehicle: saline with Tween-80 99 % of control

ClCCOCCOc1c(Cl)cc(Cl)cc1Cl
inactive: dose: 100.0 mg/kg/injection, schedule: Q01DX009 (ip), vehicle: Klucel (hydroxypropylcellulose) (HPC) 93 % of control | dose: 200.0 mg/kg/injection, schedule: Q01DX009 (ip), vehicle: Klucel (hydroxypropylcellulose) (HPC) 103 % of control | dose: 400.0 mg/kg/injection, schedule: Q01DX009 (ip), vehicle: Klucel (hydroxypropylcellulose) (HPC) 100 % of control

O=C1CC(c2ccccc2)C(c2ccccc2)CO1 (configuration not stated)
inactive: dose: 25.0 mg/kg/injection, schedule: Q04DX003 (ip), vehicle: Klucel (hydroxypropylcellulose) (HPC) 91 % of control | dose: 50.0 mg/kg/injection, schedule: Q04DX003 (ip), vehicle: Klucel (hydroxypropylcellulose) (HPC) 92 % of control | dose: 100.0 mg/kg/injection, schedule: Q04DX003 (ip), vehicle: Klucel (hydroxypropylcellulose) (HPC) 88 % of control and 92 % of control | dose: 400.0 mg/kg/injection, schedule: Q04DX003 (ip), vehicle: Klucel (hydroxypropylcellulose) (HPC) 87 % of control

CCCCCCCCCC[N+](C)(C)CCO
inactive: [1] 118 % of control | dose: 25.0 mg/kg/injection, schedule: Q01DX009 (ip), vehicle: saline 109 % of control | dose: 50.0 mg/kg/injection, schedule: Q01DX009 (ip), vehicle: saline 116 % of control

COc1ccc(/C=C/c2ccc(S(=O)(=O)c3ccc(/C=C/c4ccc(OC)cc4)c(NC(C)=O)c3)cc2NC(C)=O)cc1
inactive: dose: 25.0 mg/kg/injection, schedule: Q01DX009 (ip), vehicle: saline with Tween-80 97 % of control | dose: 50.0 mg/kg/injection, schedule: Q01DX009 (ip), vehicle: saline with Tween-80 97 % of control | dose: 100.0 mg/kg/injection, schedule: Q01DX009 (ip), vehicle: saline with Tween-80 92 % of control

CCOC(=O)/C=C/C(=O)O (tested in a mixture with another compound)
inactive: dose: 100.0 mg/kg/injection, schedule: Q04DX003 (ip), vehicle: saline 100 % of control | dose: 200.0 mg/kg/injection, schedule: Q04DX003 (ip), vehicle: saline 98 % of control | dose: 400.0 mg/kg/injection, schedule: Q04DX003 (ip), vehicle: saline 96 % of control

O=c1cc(Nc2ccc(Br)cc2)[nH]c(=O)[nH]1
inactive: [3] 94 % of control | [4] 100 % of control | [5] 102 % of control

CN1CC[C@@H](c2ccccc2)[C@@H](O)C1
inactive: [6] 97 % of control | [7] 100 % of control

COc1ccc(N=C(CC(C)C)C2C(=O)c3ccccc3C2=O)cc1
inactive: dose: 50.0 mg/kg/injection, schedule: Q01DX005 (ip), vehicle: Klucel (hydroxypropylcellulose) (HPC) 100 % of control | dose: 100.0 mg/kg/injection, schedule: Q01DX005 (ip), vehicle: Klucel (hydroxypropylcellulose) (HPC) 109 % of control | dose: 200.0 mg/kg/injection, schedule: Q01DX005 (ip), vehicle: Klucel (hydroxypropylcellulose) (HPC) 104 % of control

CC(C)C1=CC23CCC4C(C)(C(N)=O)CCCC4(C)C2CC1C1C(=O)OC(=O)C13 (configuration not stated)
inactive: [2] 91 % of control

CC(C)[CH2][Sn](=[O])[c]1ccccc1
inactive: dose: 0.39 mg/kg/injection, schedule: Q01DX009 (ip), vehicle: saline 88 % of control | dose: 0.79 mg/kg/injection, schedule: Q01DX009 (ip), vehicle: saline 87 % of control | dose: 1.56 mg/kg/injection, schedule: Q01DX009 (ip), vehicle: saline 95 % of control

OC(COc1c2ccccc2nc2ccccc12)COc1c2ccccc2nc2ccccc12
inactive: [3] 104 % of control | [4] 101 % of control | [5] 101 % of control

CCC(=O)NC1=CCC(C(C)(C)C)CC1 (configuration not stated)
inactive: [6] 102 % of control | [7] 102 % of control
